{
  "source": "patent US20070141067A1",
  "about": "“TARGETED CANCER THERAPY” (MAYO MEDICAL VENTURES, priority 2004, published 2007)",
  "tested_on": "HeLa cells",
  "assay": "siRNA pretreatment with or without low dose doxorubicin, HeLa cell survival (drug sensitization)",
  "assay_type": "cell-based",
  "settings": "50 fold lower than the LD90, dose response experiment",
  "procedure": "FIG. 6A is a graph illustrating percent cell survival following treatment with a gene-specific siRNA, with or without a low dose drug. Seventy-six test siRNAs (2 or 3 siRNAs per gene plus 6 control siRNAs), targeting 29 novel candidate genes, were transfected into HeLa cells.\nFIG. 6B is an enlarged section of the graph in FIG. 6A.\nFIG. 6C is a graph of the same data of FIG. 6A plotted as a percentage increase in sensitivity relative to the untreated sample.\nAn analysis was conducted by a similar method as described in FIG. 4, with two main differences. First, a different set of siRNAs were used. The siRNAs targeted 29 novel candidate genes that were previously identified by cDNA microarray and CGH analysis to be overexpressed and amplified in 14 breast cancer cell lines (Hyman et al., Cancer Res. 62:6240-5, 2002). There were 76 test siRNAs (2 or 3 siRNA per gene plus 6 control siRNAs). The second difference in this study was that the number of experiments was doubled to include a low dose doxorubicin (“Dox”) treatment. Four replicates of the no-drug control, and four replicates of the low dose drug were prepared for a total of 8 wells treated with each siRNA. The HeLa cells were transfected with siRNA as described above, and the cells were allowed to incubate for 24 hours to achieve silencing of the targeted genes. […]",
  "data": [
    {"smiles": "COc1cccc2c1C(=O)c1c(O)c3c(c(O)c1C2=O)C[C@@](O)(C(=O)CO)C[C@@H]3O[C@H]1C[C@H](N)[C@H](O)[C@H](C)O1", "note": "[Dox, doxorubicin]", "values": [
      {"measurement": "effect of low dose Dox on HeLa cell survival", "value": "no effect"}
    ]}
  ]
}
